For series [1], the system named is L1210 leukemia cells. Description: Colonization by L1210 leukemia cells in soft agar (cytostatic activity in vitro). The series is classed as cell-based, mouse. The note with it: L1210 colony formation in soft agar, 7 days. On the procedure:
The cytostatic activity of the compounds according to the invention is determined on L1210 leukemia cells of the mouse. In detail, the following test systems were used:
a) Colonization by L1210 leukemia cells in soft agar
In this test cytostatically active substances cause the number of colonies observed to be reduced compared to an untreated control. In detail, the test is carried out as follows:
500 leukemia cells per plate are incubated for 1 hour at 37° C. with different concentrations of the test substance. The cells are subsequently washed twice with McCoy 5A medium and finally poured out into petri dishes after adding 0.3% of agar. Controls are incubated only with fresh medium. Instead of incubating for one hour, different concentrations and test substances are in many cases mixed with the upper agar layer in order to thus achieve continuous exposition of the cells over the entire incubation time. After solidification of the agar, the plates are incubated in an incubator for 7 days at 37° C. (5% by volume of CO2, 95% relative atmospheric humidity). The number of colonies produced with a diameter of more than 60 μm is subsequently counted. The results are given as the number of colonies in the treated agar plate, in per cent of the untreated control. From the dose-action curve thus attained, the IC50 is determined as a measure of the activity of the substance.

Series [2] concerns L1210 leukemia. Description: In vivo activity of the platinum complexes against L1210 leukemia of the mouse. Set-up: optimum Dose (greatest antitumoral effect), L1210: unit not given here. The note with it: for T/C % L1210 (at optimum dose): mean survival time vs untreated control; for cytostatic activity in the "in vivo" test using the L1210 tumor cell line: in words. On the procedure:
c) In vivo activity of the platinum complexes against L1210 leukemia of the mouse
Ascitic fluid is removed under sterile conditions from DBA2 mice (female, 18-20 g) 7 days after implantation. The ascites is washed three times with PBS, counted, and adjusted to a cell number of 10^6 in 0.2 ml of PBS.
10^6 cells, suspended in 0.2 ml of PBS, are subsequently injected intraperitoneally into DBF1 mice (female, 18-20 g). 6 animals per group are employed for each substance concentration or as control.
Determination of the antitumoral activity
a) The animals are weighed on days 1 and 5 after injection of the test substance. A weight loss of more than 20% on day 5 is regarded as an indicator of a toxic substance action.
b) At the end of the experiment (death of all animals or surviving animals on day 60), the mean survival time of the animals in each group is determined, so long as at least 65% of the animals were still living on day 5 of the experiment. The average survival time is determined exclusively for animals dying during the experiment. Long-term survivors (LTS) are not taken into account in this calculation and are specified separately.
From the mean survival time (MST) of the […] group and of the control group (MSTc), the antitumoral activity (T/C) for each substance concentration is determined in per cent of the untreated control from the following formula: [formula]
The dose which causes the greatest antitumoral effect (optimal dosage) and in each case one dose step above and below this dose are collated in Table 1. Animals which are still living on day 60 of the experiment are listed separately as "long-term survivors".

Series [3] is described as follows: Solubility in water. It counts as physicochemical.
Series [4] concerns NMRI mice. Description: Determination of the acute toxicity. The series is classed as in vivo, mouse. As to conditions: 1 × i.p., survival on day 14. On the procedure: b) Determination of the acute toxicity
In order to determine the acute toxicity, NMRI mice are injected intraperitoneally on day 0 with various doses of a test substance, dissolved in 0.5 ml of 5% glucose solution. Control groups receive only 0.5 ml of 5% strength glucose solution. 5 mice are used per concentration of the test substance. On day 14, the number of surviving mice is determined, and the LD5, LD50 and LD95 are determined from this according to the Lichtfield Wilcoxon method.

Series [5] deals with tumor cells which are resistant towards cis-platin. The series is described as follows: Cross resistance to cis-diamminedichloroplatinum(II) in vitro / activity in cisplatin-resistant tumor cells. It counts as cell-based. The note with it: in words.
Setting [6] is: treatment program 3 × i.p./i.p.
Where [7] appears, read: treatment program 5 × i.p./i.p.
The mark [8] stands for this setting: treatment program 2 × i.p./i.p.

The record followed here is patent publication US5091521A, “Cis-platinum complexes, a process for the preparation thereof, and pharmaceuticals containing these compounds” (priority 1986, dated 1992).

Broadly, the IC50 is the point on the concentration scale where inhibition reaches its midpoint. Usually LD50 stands for the dose at which mortality reaches 50%.

In turn, `N.N.[Cl][Pt][Cl]` [Cisplatin, cis-diamminedichloroplatinum (II), reference compound] showed an IC50 in series [1] of 0.04 µg/mL. In addition, in series [2] (setting [6]), the “optimum Dose (greatest antitumoral effect), L1210” value worked out at 4 and the “T/C % L1210 (at optimum dose)” value was 157%.
Compound `COCC(C)(CN)CN.[Cl][Pt][Cl]` [Compound 11, N,N'-(2-methoxymethyl-2-methyl-1,3-propanediamine)dichloro-platinum(II)] had an IC50 in series [1] of 1.4 µg/mL. For the same compound, the Solubility in water in series [3] is 3 mg/mL.
As to `CCC(CN)(CN)COC.[Cl][Pt][Cl]` [Compound 12, N,N'-(2-ethyl-2-methoxymethyl-1,3-propanediamine)dichloro-platinum(II)], the IC50 in series [1] stood at 0.5 µg/mL. This compound also registered an LD50 in series [4] of 19 mg/kg. Further, the “cytostatic activity in the "in vivo" test using the L1210 tumor cell line” value in series [2] is on record as “high cytostatic activity”. Besides, in series [2] (setting [6]), the “optimum Dose (greatest antitumoral effect), L1210” value worked out at 3 and the “T/C % L1210 (at optimum dose)” value came out at 227%. In addition, the “cross resistance in vitro to cis-diamminedichloroplatinum(II)” value in series [5] is reported as “only partially cross resistant”.
Compound `CC(CN)(CN)COCC(O)CO.[Cl][Pt][Cl]` (stereo not drawn) [Compound 13, N,N'-(2-(2',3'-dihydroxypropyloxymethyl)-2-methyl-1,3-propanediamine)dichloroplatinum(II)] displayed an IC50 in series [1] of 1.25 µg/mL. Also, the LD50 in series [4] was 57.3 mg/kg. Also, in series [2] (setting [7]), the “optimum Dose (greatest antitumoral effect), L1210” value was determined as 8 and the “T/C % L1210 (at optimum dose)” value was 156%. The Solubility in water in series [3] worked out at 25 mg/mL.
In the case of `COCC(O)COCC(C)(CN)CN.[Cl][Pt][Cl]` (stereo not drawn) [Compound 14, N,N'-(2-(2'-hydroxy-3'-methoxypropyloxymethyl)-2-methyl-1,3-propanediamine)dichloroplatinum(II)], the IC50 in series [1] was 0.75 µg/mL. The same compound returned an LD50 in series [4] of 57.1 mg/kg. Further, in series [2] (setting [6]), the “optimum Dose (greatest antitumoral effect), L1210” value amounted to 4 and the “T/C % L1210 (at optimum dose)” value came to 168%. Further, in series [3], the Solubility in water turned out to be 16 mg/mL.
With `CC(CN)(CN)CO[C@@H]1CC[C@H](O)[C@@H](CO)O1.[Cl][Pt][Cl]` [Compound 15, N,N'-(2-(2',3'-didesoxy-alpha-D-erythrohexopyranosyloxy-methyl)-2-methyl-1,3-propanediamine)dichloroplatinum(II)], in series [1], the IC50 amounted to 2.9 µg/mL. This compound also yielded an LD50 in series [4] of 1 to 5 mg/kg. This compound came in with a Solubility in water in series [3] of 17 mg/mL.
In turn, `CC(=O)NC1(CO)C[NH][Pt]([Cl])([Cl])[NH]C1` [Compound 17, N,N'-(2-acetamido-2-hydroxymethyl-1,3-propanediamine)di-chloroplatinum(II)] registered a 50% inhibitory concentration (IC50) in series [1] of 1.1 µg/mL. This compound returned an LD50 in series [4] of 50 to 100 mg/kg. Moreover, in series [2] (setting [6]), the “optimum Dose (greatest antitumoral effect), L1210” value turned out to be 30 and the “T/C % L1210 (at optimum dose)” value is on record as 113%. In addition, the Solubility in water in series [3] was determined as 10 mg/mL.
`COCC(C)(CN)CN.O=C([O-])CC(=O)[O-].[Pt+2]` [Compound 30, N,N'-(2-methyloxymethyl-2-methyl-1,3-propanediamine)platinum(II) malonate] yielded an IC50 in series [1] of 1.4 µg/mL.
Turning to `COCC(C)(CN)CN.O=C([O-])C1(C(=O)[O-])CCC1.[Pt+2]` [Compound 31, N,N'-(2-methyloxymethyl-2-methyl-1,3-propanediamine)platinum(II) 1,1-cyclobutanedicarboxylate], the IC50 in series [1] was determined as 2.6 µg/mL. The LD50 in series [4] was 250 mg/kg. In addition, in series [2] (setting [8]), the “optimum Dose (greatest antitumoral effect), L1210” value is reported as 112 and the “T/C % L1210 (at optimum dose)” value is 226%. Also, the “LTS (Longterm survivor), L1210” value in series [2] (treatment program 2 × i.p./i.p., optimum dose, animals living on day 60) was 3/6. Moreover, the Solubility in water in series [3] was determined as 15 mg/mL.
As to `CCC(CN)(CN)COC.O=C([O-])C1(C(=O)[O-])CCC1.[Pt+2]` [Compound 32, N,N'-(2-ethyl-2-methyloxymethyl-1,3-propanediamine)platinum(II) 1,1-cyclobutanedicarboxylate], in series [1], the IC50 worked out at 3.6 µg/mL. In series [4], this compound registered an LD50 of 437 mg/kg. Also, in series [2] (setting [7]), the “T/C % L1210 (at optimum dose)” value was found to be 194%. Besides, the Solubility in water in series [3] was 70 mg/mL.
On to `CCC(CN)(CN)COC.O=C([O-])CC(=O)[O-].[Pt+2]` [corresponding malonate derivative], for which, in series [2], the “cytostatic activity in the "in vivo" test using the L1210 tumor cell line” value was “high cytostatic activity”. Besides, the “cross resistance in vitro to cis-diamminedichloroplatinum(II)” value in series [5] is recorded as “only partially cross resistant”.
